Reference: patent publication US12595243B2, “Modulators of extracellular signal-regulated kinase” (GEN1E LIFESCIENCES INC., priority 2023, dated 2026)
Read-outs that look alike come from different tables or passages of the source.

Columns and labels:
[1] = system: melanoma cell line A375; test: Cytotoxicity in cancer cell lines (CellTiter-Glo), A375; conditions: A375 cells, mean of three tests
Description: (§2) The cytotoxicity of test compounds was determined for several cell lines including melanoma cell line RPMI-7951, melanoma cell line Sk-Mel-28, melanoma cell line A375, melanoma cell line U87, glioblastoma cell line U87, immortalized human T lymphocyte Jurkat cells, and human pancreatic carcinoma cell line PL-45.
(§3) All cells were obtained from ATCC. RPMI, DMEM, EMEM and pen/strep were obtained from Invitrogen. Normocin® was obtained from InvivoGen. FBS was obtained from Gibco. Cell viability reagent Cell-titer glow was obtained from Promega.
(§4) The growth media for A375 and PL45 cells was DMEM supplemented with antibiotic/anti-mycotic pen/strep and Normocin® (InvivoGen) and 10% FBS.
(§5) Ten (10) mM solutions of each of the test compounds were prepared in dimethyl sulfoxide (DMSO) and serially diluted in DMSO to provide solutions having concentrations of the test compound of 3 mM, 1 mM, 0.3 mM, 0.1 mM, 0.03 mM, or 0.01 mM. Forty (40) μL of each of the solutions were further diluted to 400 μL in the cell specific complete media to provide 10× stock solutions having a 1 mM, 300 μM, 100 μM, 30 μM, 10 μM, 3 μM, 1 μM, or 0.3 μM of the test compound. Ten (10) μL of DMSO was diluted to 400 μL in the complete media and used as the 0 μM control.
(§6) For the cytotoxicity studies, all cells were grown in their respective complete media. Confluent cells were harvested and plated into two 96-well tissue culture treated plates at 5,000-8,000 cells/wells in 180 μL media. Twenty (20) μL of each of the 10× stock solutions were added to the wells and mixed.
(§7) After incubating for 24 h, media was aspirated out and replaced with 180 μL/well of the fresh media and 20 μL/well of the 10× stock solutions in duplicate wells in duplicate plates (Plates 1 and 2; and 3 and 4) and in quadruplicate wells (Plate 5) were added, mixed and cultured for 48 hours. The final concentrations of each test compound were 100 μM, 30 μM, 10 μM, 3 μM, 1 μM, 0.3 μM, 0.1 μM and 0 μM.
(§8) After 48 hours and/or 72 hours following addition of the test compounds, one plate each was removed from the incubator, the media aspirated out, 100 μL of CellTiter-Glo® reagent added to each well, and the resulting luminescent signals measured using a VICTOR-2® plate reader.
(§9) The data from the plate reader were exported to GraphPad (Prism) and data processed using non-linear regression and EC50 value determined.

[2] = system: immortalized human T lymphocyte Jurkat cells; test: Cytotoxicity in cancer cell lines (CellTiter-Glo), Jurkat; assay type: cell-based; conditions: Jurkat cells, mean of three tests
Description: (§1) All cells were obtained from ATCC. […] Normocin® was obtained from InvivoGen. FBS was obtained from Gibco. […] All test compounds were synthesized as described herein.

[3] = system: human pancreatic carcinoma cell line PL-45; test: Cytotoxicity in cancer cell lines (CellTiter-Glo), PL-45; conditions: PL45, 48 h, read-out: Cytotoxicity EC50 at 48 hours, PL-45
Description: as §2, §3, §4, §5, §6, §7, §8, §9

[4] = system: glioblastoma cell line U87; test: Cytotoxicity in cancer cell lines (CellTiter-Glo), U87; assay type: cell-based; conditions: Homo sapiens, U-87 MG, U87 cells, mean of three tests
Description: as §1

[5] = Cytotoxicity in primary cells (CellTiter-Glo), PBMC; assay type: cell-based; conditions: mean of three tests
Description: as §1

[6] = system: melanoma cell line Sk-Mel-28; test: Cytotoxicity in cancer cell lines (CellTiter-Glo), Sk-Mel-28; assay type: cell-based; conditions: Homo sapiens, Sk-Mel-28 cells, mean of three tests
Description: as §1

[7] = system: melanoma cell line RPMI-7951; test: Cytotoxicity in cancer cell lines (CellTiter-Glo), RPMI-7951; assay type: cell-based; conditions: Homo sapiens
Description: as §1

[8] = Homo sapiens, A-375, 48 h, read-out: Cytotoxicity EC50 at 48 hours, A375, 48 h
[9] = Homo sapiens, A-375, 72 h, read-out: Cytotoxicity EC50 at 72 hours, A375, 72 h
[10] = 48 h, read-out: Cytotoxicity EC50 at 48 hours, Jurkat
[11] = 72 h, read-out: Cytotoxicity EC50 at 72 hours, Jurkat
[12] = 48 h, read-out: Cytotoxicity EC50 at 48 hours, U87
[13] = 72 h, read-out: Cytotoxicity EC50 at 72 hours, U87
[14] = SK-MEL-28, 48 h, 48 h, read-out: Cytotoxicity EC50 at 48 hours, Sk mel
[15] = SK-MEL-28, 72 h, 72 h, read-out: Cytotoxicity EC50 at 72 hours, Sk mel
[16] = RPMI-7951, 48 h, read-out: Cytotoxicity EC50 at 48 hours, RPMI
[17] = RPMI-7951, 72 h, read-out: Cytotoxicity EC50 at 72 hours, RPMI

In the case of O=S1(=O)C=CC(OS(=O)(=O)c2ccc3ccccc3c2)C1 (centres unmarked) [(1), 1,1-dioxido-2,3-dihydrothiophen-3-yl naphthalene-2-sulfonate], the EC50 [1, 8] is reported as 4 µM, the EC50 [1, 9] is reported as 0.8 µM and the EC50 [2, 10] is reported as 3 µM. It also gave an EC50 [2, 11] of 5 µM, an EC50 [3] of 2.1 µM and an EC50 [4, 12] of 1 µM. For the same compound, the EC50 [4, 13] was 4 µM, the EC50 at 48 h [5] was 0.4 µM and the EC50 at 72 h [5] was 0.4 µM. It also gave an EC50 [6, 14] of 4 µM, an EC50 [6, 15] of 0.3 µM and an EC50 [7, 16] of 1 µM. The EC50 [7, 17] was 4 µM.

In the case of O=S1(=O)C=CC(OS(=O)(=O)c2ccc(-c3ccccc3)cc2)C1 (centres unmarked) [(17), 1,1-dioxido-2,3-dihydrothiophen-3-yl [1,1′-biphenyl]-4-sulfonate], the EC50 [1, 9] is reported as 10 µM, the EC50 ([1]; read-out: Cytotoxicity EC50 at 48 hours, A375, 48 h) is reported as 2.6 µM and the EC50 [2, 10] is reported as 9 µM. For the same compound, the EC50 [2, 11] was 2 µM, the EC50 [4, 12] was 2 µM and the EC50 [4, 13] was 0.9 µM. It also gave an EC50 at 48 h [5] of 0.5 µM, an EC50 at 72 h [5] of 0.5 µM and an EC50 [6, 14] of 3.2 µM. It also gave an EC50 [6, 15] of 0.8 µM, an EC50 [7, 16] of 1 µM and an EC50 [7, 17] of 0.4 µM.

Compound O=S1(=O)C=CC(OS(=O)(=O)c2ccc(Oc3ccccc3)cc2)C1 (centres unmarked) [(18), 1,1-dioxido-2,3-dihydrothiophen-3-yl 4-phenoxybenzenesulfonate] has an EC50 [1, 8] of 2 µM, an EC50 [4, 12] of 1 µM and an EC50 at 48 h [5] of 0.2 µM. The EC50 at 72 h [5] was 21 µM, the EC50 [6, 14] was 2 µM and the EC50 [6, 15] was 3 µM.

O=S1(=O)C=CC(OS(=O)(=O)c2cccc(C3CCCCC3)c2)C1 (centres unmarked) [(35), 1,1-dioxido-2,3-dihydrothiophen-3-yl 3-cyclohexylbenzenesulfonate] showed an EC50 [1, 8] of 1 µM and an EC50 [3] of 1.2 µM.

Compound O=S1(=O)C=CC(OS(=O)(=O)c2ccc(OC3CCCCC3)cc2)C1 (centres unmarked) [(36), 1,1-dioxido-2,3-dihydrothiophen-3-yl 4-(cyclohexyloxy)benzenesulfonate] has an EC50 [1, 8] of 4.3 µM and an EC50 [3] of 2.1 µM.

Compound O=S1(=O)C=CC(OS(=O)(=O)c2cccc(OC3CCCCC3)c2)C1 (centres unmarked) [(37), 1,1-dioxido-2,3-dihydrothiophen-3-yl 3-(cyclohexyloxy)benzenesulfonate] has an EC50 [1, 8] of 2.8 µM and an EC50 [3] of 1.6 µM.

With O=C(c1ccccc1)c1ccc(S(=O)(=O)OC2C=CS(=O)(=O)C2)cc1 (centres unmarked) [(38), 1,1-dioxido-2,3-dihydrothiophen-3-yl 4-benzoylbenzenesulfonate] the EC50 [1, 8] was 0.2 µM and the EC50 [3] was 0.5 µM.

Compound O=S1(=O)C=CC(OS(=O)(=O)c2ccc(C(O)c3ccccc3)cc2)C1 (centres unmarked) [(39), 1,1-dioxido-2,3-dihydrothiophen-3-yl 4-(hydroxy(phenyl)methyl)benzenesulfonate] has an EC50 [1, 8] of 1.3 µM and an EC50 [3] of 1.5 µM.

Compound Cc1cc(Oc2ccccc2)ccc1S(=O)(=O)OC1C=CS(=O)(=O)C1 (centres unmarked) [(40), 1,1-dioxido-2,3-dihydrothiophen-3-yl 2-methyl-4-phenoxybenzenesulfonate] has an EC50 [1, 8] of 0.3 µM and an EC50 [3] of 0.2 µM.

With COc1cc(Oc2ccccc2)ccc1S(=O)(=O)OC1C=CS(=O)(=O)C1 (centres unmarked) [(41), 1,1-dioxido-2,3-dihydrothiophen-3-yl 2-methoxy-4-phenoxybenzenesulfonate] the EC50 [1, 8] was 0.6 µM and the EC50 [3] was 0.5 µM.

Compound Cc1cc(S(=O)(=O)OC2C=CS(=O)(=O)C2)ccc1Oc1ccccc1 (centres unmarked) [(42)] has an EC50 [1, 8] of 0.5 µM and an EC50 [3] of 1.2 µM.

Compound COc1cc(S(=O)(=O)OC2C=CS(=O)(=O)C2)ccc1Oc1ccccc1 (centres unmarked) [(43), 1,1-dioxido-2,3-dihydrothiophen-3-yl 3-methoxy-4-phenoxybenzenesulfonate] has an EC50 [1, 8] of 3.12 µM and an EC50 [3] of 0.61 µM.

For O=S1(=O)C=CC(OS(=O)(=O)c2ccc(Sc3ccccc3)cc2)C1 (centres unmarked) [(44), 1,1-dioxido-2,3-dihydrothiophen-3-yl 4-(phenylthio)benzenesulfonate], the EC50 [1, 8] was 3.21 µM and the EC50 [3] was 0.8 µM.

O=S1(=O)C=CC(OS(=O)(=O)c2ccc(S(=O)(=O)c3ccccc3)cc2)C1 (centres unmarked) [(45), 1,1-dioxido-2,3-dihydrothiophen-3-yl 4-(phenylsulfonyl)benzenesulfonate] gave an EC50 [1, 8] of 25 µM and an EC50 [3] of 2.4 µM.

With CC(C)Nc1cc(-c2c[nH]c(C(=O)N[C@H](CO)c3cccc(Cl)c3)c2)c(Cl)cn1 [Ulixertinib, ulixertinib, reference compound] the EC50 [1, 8] was 0.6 µM, the EC50 [3] was 14 µM and the EC50 at 48 h [5] was 31 µM.
